Minimal effective concentration data for 32 molecules are collected here from US8778964B2, “Hydroxy-substituted imidazo[1,2-a]-pyridinecarboxamides and their use” (Bayer Pharma Aktiengesellschaft, priority 2012, dated 2014).

SMILES strings stand for the structures. Counter-ions that a name gives are not always drawn. Where only a bound is given, the exact number is not on record here.

For the assay, the system named is recombinant guanylate cyclase reporter cell line. As to the kind of experiment: Action on recombinant guanylate cyclase reporter cell line (MEC). The assay is classed as cell-based. The settings on record: in some cases mean values obtained from individual determinations. A digest of the protocol: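 Cell-based reporter assay with recombinant guanylate cyclase expressed in a reporter cell line, per a published method. Activity reported as minimal effective concentration (MEC), in some cases as the mean of individual determinations.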
The minimal effective concentration is the smallest amount tested that counted as effective. On to `CC[C@@H](CO)NC(=O)c1c(C)nc2c(OCC3CCCCC3)cccn12` [Example 88, 8-(cyclohexylmethoxy)-N-[(2S)-1-hydroxybutan-2-yl]-2-methylimidazo[1,2-a]pyridine-3-carboxamide], for which the minimal effective concentration worked out at 1 µM. With `Cc1nc2c(OCc3ccccc3F)cccn2c1C(=O)NC(CO)CO` [Example 51, N-(1,3-dihydroxypropan-2-yl)-8-[(2-fluorobenzyl)oxy]-2-methylimidazo[1,2-a]pyridine-3-carboxamide], the minimal effective concentration worked out at 5.5 µM.

In the case of `Cc1nc2c(OCc3c(F)cccc3F)cccn2c1C(=O)NC(C)C(O)C(F)(F)F` (single isomer, unassigned) [Example 143, 8-[(2,6-Difluorobenzyl)oxy]-2-methyl-N-(4,4,4-trifluoro-3-hydroxybutan-2-yl)imidazo[1,2-a]-pyridine-3-carboxamide], the minimal effective concentration came out at 0.03 µM. Take `CCCC[C@H](CO)NC(=O)c1c(C)nc2c(OCc3c(F)cccc3F)cc(F)cn12` [Example 132, 8-[(2,6-difluorobenzyl)oxy]-6-fluoro-N-[(2R)-1-hydroxyhexan-2-yl]-2-methylimidazo[1,2-a]pyridine-3-carboxamide]: the minimal effective concentration came out at 0.03 µM.

For `CC[C@H](CO)NC(=O)c1c(C)nc2c(OCc3cccc(Cl)c3Cl)cccn12` [Example 45, 8-[(2,3-dichlorobenzyl)oxy]-N-[(2R)-1-hydroxybutan-2-yl]-2-methylimidazo[1,2-a]-pyridine-3-carboxamide], the minimal effective concentration is 0.65 µM.

For the molecule `CCC(C)[C@H](CO)NC(=O)c1c(C)nc2c(OCC3CCCCC3)cccn12` (stereo partly drawn) [Example 96, 8-(cyclohexylmethoxy)-N-[(2R)-1-hydroxy-3-methylpentan-2-yl]-2-methylimidazo[1,2-a]pyridine-3-carboxamide], the minimal effective concentration was determined as 3 µM. Regarding `Cc1nc2c(OCC3CCC3)cccn2c1C(=O)NCCC1(O)CCCC1` [Example 97, 8-(cyclobutylmethoxy)-N-[2-(1-hydroxycyclopentyl)ethyl]-2-methylimidazo[1,2-a]pyridine-3-carboxamide], the minimal effective concentration worked out at 1 µM. For `CCOCC(CO)NC(=O)c1c(C)nc2c(OCc3c(F)cccc3F)cccn12` (racemic) [Example 160, rac-8-[(2,6-Difluorobenzyl)oxy]-N-(1-ethoxy-3-hydroxypropan-2-yl)-2-methylimidazo[1,2-a]-pyridine-3-carboxamide], the minimal effective concentration worked out at 0.3 µM. In the case of `CCCC[C@H](CO)NC(=O)c1c(C)nc2c(OCc3c(F)cccc3F)cc(C#N)cn12` [Example 157, 6-Cyano-8-[(2,6-difluorobenzyl)oxy]-N-[(2R)-1-hydroxyhexan-2-yl]-2-methylimidazo[1,2-a]-pyridine-3-carboxamide] it was 0.065 µM; in that of `Cc1nc2c(OCc3c(F)cccc3F)cc(Cl)cn2c1C(=O)N[C@@H](CO)CCO` [Example 128, 6-chloro-8-[(2,6-difluorobenzyl)oxy]-N-[(2R)-1,4-dihydroxybutan-2-yl]-2-methylimidazo[1,2-a]pyridine-3-carboxamide], 0.3 µM; in that of `CCc1nc2c(OCC3CCCCC3)cccn2c1C(=O)N[C@H](C)CO` [Example 55, 8-(Cyclohexylmethoxy)-2-ethyl-N-[(2R)-1-hydroxypropan-2-yl]imidazo[1,2-a]pyridine-3-carboxamide formic acid salt], 0.1 µM. For `Cc1nc2c(OCc3ccccc3)cccn2c1C(=O)NCCC1(O)CCCC1` [Example 48, 8-(benzyloxy)-N-[2-(1-hydroxycyclopentyl)ethyl]-2-methylimidazo[1,2-a]pyridine-3-carboxamide], the minimal effective concentration stood at 1 µM. Next, `CCCC[C@@H](NC(=O)c1c(C)nc2c(OCc3c(F)cccc3F)cccn12)C(O)C(F)(F)F` (stereo partly drawn) [Example 141, 8-[(2,6-Difluorobenzyl)oxy]-2-methyl-N-[(3R)-1,1,1-trifluoro-2-hydroxyheptan-3-yl]imidazo[1,2-a]pyridine-3-carboxamide]: 0.1 µM; `CSCC[C@@H](CO)NC(=O)c1c(C)nc2c(OCC3CCCCC3)cccn12` [Example 90, 8-(cyclohexylmethoxy)-N-[(2S)-1-hydroxy-4-(methylsulphanyl)butan-2-yl]-2-methylimidazo[1,2-a]pyridine-3-carboxamide]: 1 µM; `Cc1nc2c(OCc3c(F)cccc3F)cccn2c1C(=O)NCC(O)COc1ccc(F)cc1` (centres unmarked) [Example 136, 8-[(2,6-difluorobenzyl)oxy]-N-[3-(4-fluorophenoxy)-2-hydroxypropyl]-2-methylimidzao[1,2-a]pyridine-3-carboxamide]: 3 µM. In the case of `Cc1nc2c(OCc3c(F)cccc3F)cccn2c1C(=O)NC(CC(F)(F)F)C(C)(C)O` (single isomer, unassigned; ent-8) [Example 154, ent-8-[(2,6-Difluorobenzyl)oxy]-2-methyl-N-(1,1,1-trifluoro-4-hydroxy-4-methylpentan-3-yl)-imidazo[1,2-a]pyridine-3-carboxamide (enantiomer B)] it was 0.03 µM; in that of `Cc1nc2c(OCc3c(F)cccc3F)cccn2c1C(=O)NC(C)C(O)C(F)(F)F` (single isomer, unassigned) [Example 145, 8-[(2,6-Difluorobenzyl)oxy]-2-methyl-N-(4,4,4-trifluoro-3-hydroxybutan-2-yl)imidazo[1,2-a]-pyridine-3-carboxamide], over 10 µM; in that of `CCCC[C@H](CO)NC(=O)c1c(C)nc2c(OCc3c(Cl)cccc3Cl)cccn12` [Example 8, 8-[(2,6-dichlorobenzyl)oxy]-N-[(2R)-1-hydroxyhexan-2-yl]-2-methylimidazo[1,2-a]pyridine-3-carboxamide], 0.3 µM. Take `Cc1nc2c(OCc3c(F)cccc3F)cccn2c1C(=O)N[C@@H]1CCC[C@H]1O` [Example 36, 8-[(2,6-difluorobenzyl)oxy]-N-[(1R,2R)-2-hydroxycyclopentyl]-2-methylimidazo[1,2-a]-pyridine-3-carboxamide]: the minimal effective concentration was 0.1 µM. For the molecule `Cc1nc2c(OCc3c(F)cccc3F)cccn2c1C(=O)NC[C@H](O)c1ccccc1` [Example 33, 8-[(2,6-difluorobenzyl)oxy]-N-[(2R)-2-hydroxy-2-phenylethyl]-2-methylimidazo[1,2-a]pyridine-3-carboxamide], the minimal effective concentration worked out at 0.3 µM. In the case of `CCCC[C@H](CO)NC(=O)c1c(C)nc2c(OCc3c(F)cccc3F)cc(N3CCCC3)cn12` [Example 64, 8-[(2,6-difluorobenzyl)oxy]-N-[(2R)-1-hydroxyhexan-2-yl]-2-methyl-6-(pyrrolidin-1-yl)imidazo[1,2-a]pyridine-3-carboxamide], the minimal effective concentration amounted to 3 µM.

`Cc1nc2c(OCC3CCCCC3)cccn2c1C(=O)NCCCCO` [Example 74, 8-(cyclohexylmethoxy)-N-(4-hydroxybutyl)-2-methylimidazo[1,2-a]pyridine-3-carboxamide]: the minimal effective concentration was 0.2 µM. As for `Cc1nc2c(OCc3c(F)cccc3F)cccn2c1C(=O)NC(CO)c1ccc(S(C)(=O)=O)cc1` (racemic) [Example 120, rac-8-[(2,6-difluorobenzyl)oxy]-N-{2-hydroxy-1-[4-(methylsulphonyl)phenyl]ethyl}-2-methylimidazo[1,2-a]pyridine-3-carboxamide], the minimal effective concentration amounted to 1 µM. For `Cc1nc2c(OCC3CCCCC3)cccn2c1C(=O)NC(CO)(CO)CO` [Example 77, 8-(cyclohexylmethoxy)-N-[1,3-dihydroxy-2-(hydroxymethyl)propan-2yl]-2-methylimidazo[1,2-a]pyridine-3-carboxamide formate], the minimal effective concentration worked out at 0.3 µM.

On to `Cc1nc2c(OCc3c(F)cccc3F)cccn2c1C(=O)N[C@H]1c2ccccc2C[C@H]1O` [Example 40, 8-[(2,6-difluorobenzyl)oxy]-N-[(1S,2R)-2-hydroxy-2,3-dihydro-1H-inden-1-yl]-2-methylimidazo[1,2-a]pyridine-3-carboxamide], for which the minimal effective concentration turned out to be 0.1 µM. Consider `CCC[C@H](CO)NC(=O)c1c(C)nc2c(OCC3CCCCC3)cccn12` [Example 67, 8-(cyclohexylmethoxy)-N-[(2R)-1-hydroxypentan-2-yl]-2-methylimidazo[1,2-a]pyridine-3-carboxamide], for which the minimal effective concentration stood at 0.03 µM.

As to `Cc1nc2c(OCc3c(F)cccc3F)cccn2c1C(=O)NC(CO)CCC(O)C(F)(F)F` (single isomer, unassigned) [Example 138, 8-[(2,6-Difluorobenzyl)oxy]-2-methyl-N-(6,6,6-trifluoro-1,5-dihydroxyhexan-2-yl)imidazo[1,2-a]-pyridine-3-carboxamide], the minimal effective concentration amounted to 0.1 µM.

`Cc1nc2c(OCc3c(F)cccc3F)cccn2c1C(=O)NCCC1(O)CCCCC1` [Example 116, 8-[(2,6-difluorobenzyl)oxy]-N-[2-(1-hydroxycyclohexyl)ethyl]-2-methylimidazo[1,2-a]pyridine-3-carboxamide]: the minimal effective concentration turned out to be 0.3 µM. Next, `CCCC[C@H](CO)NC(=O)c1c(C)nc2c(OCc3cccc(Cl)c3Cl)cccn12` [Example 9, 8-[(2,3-dichlorobenzyl)oxy]-N-[(2R)-1-hydroxy-hexan-2-yl]-2-methylimidazo[1,2-a]pyridine-3-carboxamide]: 0.5 µM; `Cc1nc2c(OCc3c(F)cccc3F)cccn2c1C(=O)NCCOCCO` [Example 24, 8-[(2,6-difluorobenzyl)oxy]-N-[2-(2-hydroxy-ethoxy)ethyl]-2-methylimidazo[1,2-a]pyridine-3-carboxamide]: 1 µM; `CCCC[C@H](CO)NC(=O)c1c(C)nc2c(OCc3c(F)ccc(F)c3F)cccn12` [Example 2, N-[(2R)-1-hydroxyhexan-2-yl]-2-methyl-8-[(2,3,6-trifluorobenzyl)oxy]imidazo[1,2-a]pyridine-3-carboxamide]: 0.03 µM. Next, `Cc1nc2c(OCc3ccccc3Br)cccn2c1C(=O)NC(CO)CO` [Example 54, 8-[(2-bromobenzyl)oxy]-N-(1,3-dihydroxypropan-2-yl)-2-methylimidazo[1,2-a]pyridine-3-carboxamide]: 10 µM.
